Test results published in PMC12153265 (mBio, 2025).

Tests used:
[1] = system: SARS-CoV-2; test: SARS-CoV-2 replication in Caco-2 cells, viral titer in the medium by plaque assay; type: cell-based; conditions: for antiviral activity in SARS-CoV-2 infection compared with compound 1 / IC50: Caco-2, MOI = 0.1, 72 h; for antiviral activity in SARS-CoV-2 infection compared with compound 1 / reduction of viral yield: plaque assay; for IC50: viral titer in medium by plaque assay, read-out: IC50, inhibition of SARS-CoV-2 replication; for reduction of viral yield: MOI = 0.1, 72 h
Description: (§1) NHBE (1.5 × 10^5 cells), Calu-3 (5 × 10^5 cells), or Caco-2 cells (2 × 10^5 cells) were seeded in one well of 12-well plates. Cells were washed with FBS-free medium before viral infection. SARS-CoV-2 was diluted in 250 µL (per well) medium and added to the above cells. Viral infection was incubated on a rocker for 45 min at 37°C. Cells were washed with fresh medium, and medium containing 10% FBS was added.
(§2) Vero E6-hACE2 cells were seeded in 6- or 12-well plates. When cell confluence reached 100%, cells were washed with FBS-free medium and infected with medium containing serially diluted SARS-CoV-2. After infection, the medium was removed, and overlay medium containing FBS-free 1× DMEM and 1% low-melting point agarose was added. At 72 h post-infection, cells were fixed with 4% paraformaldehyde (PFA) overnight and stained with 0.2% crystal violet. Plaques were counted on a lightbox.
(§3) Caco-2, NHBE, Calu-3, and Vero E6-hACE2 cells were pre-treated with compound 1, 6, or 10 and infected with SARS-CoV-2 (MOI = 0.1 for Caco-2, NHBE, and Calu-3; MOI = 0.001 for Vero E6-hACE2). Compounds were added daily during viral infection until the end of the experiments (72 h for Caco-2 and Calu-3, 48 h for NHBE, and 24 h for Vero E6-hACE2), with DMSO used as a control. Viral titer in the medium was determined by plaque assay. Cytotoxicity assay was performed for uninfected Caco-2, NHBE, Calu-3, and Vero E6-hACE2 cells with the same treatment schedule as that of viral replication assay. Cytotoxicity was determined with an XTT assay kit (Roche), according to the manufacturer’s instructions. The percentage of inhibition was normalized to DMSO control. IC50, IC90, and CC50 were calculated with GraphPad Prism software.

[2] = system: SARS-CoV-2; test: SARS-CoV-2 replication (plaque assay) and cytotoxicity (XTT) in Calu-3 cells; type: cell-based; conditions: Calu-3, MOI = 0.1, 72 h
Description: as §3

[3] = system: Caco-2 cells; test: Cytotoxicity, XTT assay, uninfected Caco-2 cells; type: cell-based, human; conditions: uninfected Caco-2, XTT assay, 72 h; read-out: CC50, cell viability
Description: as §3

[4] = system: IFN-β promoter; test: IFN-β induction by Sendai virus, luciferase reporter assay in 293T cells; type: cell-based, human; conditions: SeV infection; for IFN induction compared with compound 1, reporter assay: 293T cells
Description: (§4) HEK293T cells in 24-well plates (~50% cell density) were transfected with a reporter plasmid cocktail containing 50 ng luciferase reporter plasmid (ISRE-luc, IFN-β-luc, or NF-κB), 5 ng TK-renilla luciferase reporter (control vector), and the indicated expression plasmids by calcium phosphate precipitation. Whole cell lysates (WCLs) were prepared at 24–30 h post-transfection and used for dual luciferase assay according to the manufacturer’s instruction (Promega).

[5] = system: SARS-CoV-2; test: SARS-CoV-2 infection of K18-hACE2 transgenic mice; type: in vivo, mouse; conditions: 50 mg/kg daily intraperitoneal, 3 dpi
Description: K18-hACE2 transgenic mice were intraperitoneally administered with compound 10 at a dose of 50 mg/kg and vehicle 1 day before infection with 1 × 10^4 PFU of SARS-CoV-2. Body weight and compound administration were monitored daily. Mice were humanely euthanized at 3 dpi, and the lung tissues were harvested for viral titration, real-time PCR, and pathological analysis.
K18-ACE2 transgenic mice were euthanized on day 3 after SARS-CoV-2 infection. Fresh lung pieces were fixed with 10% formalin for 24 h. The post-caval lobes of the […] were sent to the histology lab in USC of the School of Pharmacy Core Facilities for processing and hematoxylin and eosin (H&E) staining. In brief, tissues were dehydrated and embedded in paraffin. Paraffin-embedded tissue blocks were sectioned with 5 µm thickness. Sections were processed by H&E staining and imaged by ZEISS Axio Scope.A1 microscope (Zeiss) and analyzed by ZEISS ZEN Blue software.
Immunofluorescence staining was performed on the middle lobes of the […] fixed with 10% formalin. Tissues were embedded in optimal cutting temperature (OCT) compound and frozen immediately at −80°C. Subsequently, the frozen tissues were cut into 8 µm sections using a cryostat-microtome. Sections were blocked with 10% normal goat serum diluted in PBST for 1 h and incubated with primary antibodies diluted in 10% normal goat serum overnight at 4°C. After washing with PBST, sections were incubated with species-matched secondary antibodies for 30 min at room temperature. Then tissue sections were washed with PBST, mounted with VectaMount Mounting Medium (Vector Laboratories), and analyzed by a confocal microscope (Nikon).

[6] = system: SARS-CoV-2; test: SARS-CoV-2 infection of AAV-hACE2-transduced C57BL/6 J mice; conditions: 35 mg/kg daily intraperitoneal, 4 dpi
[7] = system: NF-κB; test: NF-κB activation by Sendai virus, luciferase reporter assay in 293T cells; type: cell-based, human; conditions: SeV infection
Description: as §4

[8] = system: SARS-CoV-2; test: SARS-CoV-2 replication in NHBE cells, viral titer in the medium by plaque assay; type: cell-based; conditions: Severe acute respiratory syndrome coronavirus 2, NHBE, 48 h
Description: as §1, §2
Caco-2, NHBE, Calu-3, and Vero E6-hACE2 cells were pre-treated with compound 1, 6, or 10 and infected with SARS-CoV-2 (MOI = 0.1 for Caco-2, NHBE, and Calu-3; MOI = 0.001 for Vero E6-hACE2). […] Viral titer in the medium was determined by plaque assay. […] Cytotoxicity was determined with an XTT assay kit (Roche), according to the manufacturer’s instructions. […] IC50, IC90, and CC50 were calculated with GraphPad Prism software.

[9] = Cytotoxicity, XTT assay, uninfected Caco-2 cells; type: cell-based, human; conditions: human, uninfected Caco-2 cells, uninfected Caco-2, XTT assay, read-out: CC50, cell viability
Description: as §3

[10] = system: IFNB1; test: Antiviral gene expression in 293T cells infected with Sendai virus, real-time PCR
[11] = Cytotoxicity, XTT assay, uninfected NHBE cells; type: cell-based; conditions: human, read-out: CC50, cell viability
Description: as §3

[12] = system: SARS-CoV-2; test: SARS-CoV-2 RNA abundance in infected Caco-2 cells, real-time PCR; type: cell-based; conditions: MOI = 0.1, 72 h
[13] = system: IFNB1, ISG56, CCL5, Mx1; test: Antiviral gene expression in SARS-CoV-2-infected Caco-2 cells, real-time PCR; type: cell-based, human; conditions: Caco-2, 2 µM and 6 µM, MOI = 0.1, 48 h
[14] = system: CTP synthesis; test: Intracellular CTP/CDP synthesis, [amide-15N]glutamine tracing and mass spectrometry
[15] = target: CTPS1 (Homo sapiens, UniProt P17812); test: CTPS1 enzymatic activity assay (UTP to CTP conversion, mass spectrometry); type: biochemical; conditions: read-out: inhibition of CTP synthesis compared with DMSO
[16] = target: T1, CTPS1 (Homo sapiens, UniProt P17812); test: Covalent labeling of FLAG-CTPS1 in 293T cells, in-gel fluorescence imaging; type: binding; conditions: FLAG-CTPS1 expressing 293T cells, 2 h
T1 construct: expressed in transfected cells; host or cells: 293T cells expressing FLAG-CTPS1
T1 sequence (P17812 1-591): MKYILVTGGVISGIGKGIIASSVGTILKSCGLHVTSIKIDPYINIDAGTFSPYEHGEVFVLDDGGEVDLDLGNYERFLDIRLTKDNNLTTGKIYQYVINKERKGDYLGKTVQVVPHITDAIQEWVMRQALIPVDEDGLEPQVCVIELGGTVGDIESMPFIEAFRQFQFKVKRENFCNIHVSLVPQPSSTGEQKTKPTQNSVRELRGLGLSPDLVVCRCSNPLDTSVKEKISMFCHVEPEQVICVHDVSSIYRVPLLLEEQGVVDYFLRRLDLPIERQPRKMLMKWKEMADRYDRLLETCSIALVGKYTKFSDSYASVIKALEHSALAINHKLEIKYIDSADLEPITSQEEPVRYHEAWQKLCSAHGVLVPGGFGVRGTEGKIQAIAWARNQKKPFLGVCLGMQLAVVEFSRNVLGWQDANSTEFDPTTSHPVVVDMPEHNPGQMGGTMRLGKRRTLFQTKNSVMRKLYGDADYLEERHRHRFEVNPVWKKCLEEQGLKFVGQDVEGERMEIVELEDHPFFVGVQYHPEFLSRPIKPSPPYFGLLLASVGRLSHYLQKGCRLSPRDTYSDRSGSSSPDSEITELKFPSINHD

COc1ccccc1NC(=O)c1cccc(NC(=O)CCl)c1 [Compound 6]
antiviral activity in SARS-CoV-2 infection compared with compound 1 [1]: more robust antiviral activity | IC50 [1]: 140 nM | CC50 value relative to IC50 value [2]: IC50 values as high as their CC50 values | CC50 [3]: 2820 nM | IFN induction compared with compound 1, reporter assay [4]: better effect on IFN induction than compound 1

CCCCCNC(=O)c1cccc(NC(=O)CCl)c1 [Compound 10]
antiviral activity in SARS-CoV-2 infection compared with compound 1 [1]: more robust antiviral activity | IC50 [1]: 110 nM | CC50 value relative to IC50 value [2]: 10 fold | CC50 [3]: 6170 nM | lung pathology, H&E staining (inflammatory infiltration) [5]: weak and isolated infiltration of immune cells | viral N protein in the lung, immunofluorescence staining [5]: lower expression of viral protein | immune gene expression in the lung ([5]; vs vehicle): elevated | viral RNA abundance in the lung ([5]; vs vehicle): reduced | viral titer in the lung ([5]; vs vehicle, plaque assay): reduced | IFN induction compared with compound 1, reporter assay [4]: better effect on IFN induction than compound 1 | viral titer in the lung ([6]; plaque assay): decreased | expression of cellular antiviral genes (Ifnb1, Isg15, Isg56, Mx1) in the lung ([6]; real-time PCR): elevated

COc1cccc(NC(=O)c2cccc(NC(=O)CCl)c2)c1 [Compound 1]
NF-κB activation, luciferase reporter [7]: no effect | reduction of viral yield ([1]; Caco-2, 2 µM): ~ 10 fold | reduction of viral yield ([1]; Caco-2, 6 µM): ~50 fold | IC90 ([1]; Severe acute respiratory syndrome coronavirus 2, Caco-2, 72 h, read-out: IC90, inhibition of SARS-CoV-2 replication): 1560 nM | IC50 ([1]; Severe acute respiratory syndrome coronavirus 2): 170 nM | CC50 value relative to IC50 value [2]: IC50 values as high as their CC50 values | IC50 ([8]; read-out: IC50, inhibition of SARS-CoV-2 replication): 970 nM | IC90 ([8]; read-out: IC90, inhibition of SARS-CoV-2 replication): 8700 nM | CC50 at 72 h [9]: 2420 nM | IFNB1 expression ([10]; 293T cells infected with Sendai virus): increased IFNB1 expression in a dose-dependent manner | expression of IFNB1 and ISG56 inhibited by Nsp8 and ORF8 ([10]; 293T cells transfected with Nsp8 or ORF8, SeV infection, 6 h): significantly restored | CC50 at 48 h [11]: 3750 nM | reduction of viral RNA abundance (Nsp1, N, E) ([12]; Caco-2, 2 µM): > 50% | reduction of viral RNA abundance (Nsp1, N, E) ([12]; Caco-2, 6 µM): ~ 75% | expression of antiviral genes (IFNB1, ISG56, CCL5, Mx1) [13]: elevated | intracellular concentration of [amide-15N]CTP and [amide-15N]CDP ([14]; Caco-2 cells infected with SARS-CoV-2): potently diminished | [amide-15N]CTP and [amide-15N]CDP ([14]; Caco-2 cells stably expressing ORF8): diminished | IFN induction, luciferase reporter ([4]; CTPS1-depleted 293T cells): failed to do so | IFN induction, luciferase reporter ([4]; control 293T cells): elevated IFN induction | inhibition at 10 µM [15]: 55 to 83%

C#CCOc1cccc(NC(=O)c2cccc(NC(=O)CCl)c2)c1 [Compound 2]
covalent labeling of CTPS1 [16]: covalently labeled CTPS1 in a dose-dependent manner
